Values of other authors as cited in US7723036B2, “Assessing response to anti-CD20 therapy by genotyping C1q components” (The University of Iowa Research Foundation, priority 2005, dated 2010).
Counter-ions that a name gives are not always drawn.

Tests used:
[1] = in vivo
[2] = in vivo; remark: listed apart in the source
[3] = oral radioactive lomustine 30 mg/m^2 to 100 mg/m^2; within 24 hours

Structure (SMILES)	oral absorption (in words) [1]	administered dose recovered in the feces after biliary excretion [2]	radioactivity given excreted in the form of degradation products [3]
O=C(O)CCCc1ccc(N(CCCl)CCCl)cc1 [Chlorambucil, 4-(bis(2-chlorethyl)amino) benzenebutanoic acid]	rapidly and completely absorbed		
CC[C@]1(O)C[C@@H]2CN(CCc3c([nH]c4ccccc34)[C@@](C(=O)OC)(c3cc4c(cc3OC)N(C)[C@H]3[C@@](O)(C(=O)OC)[C@H](OC(C)=O)[C@]5(CC)C=CCN6CC[C@]43[C@@H]65)C2)C1 [Vinblastine]	Unpredictable absorption	about 10%	
CC[C@]1(O)C[C@H]2CN(CCc3c([nH]c4ccccc34)[C@@](C(=O)OC)(c3cc4c(cc3OC)N(C=O)[C@H]3[C@@](O)(C(=O)OC)[C@H](OC(C)=O)[C@]5(CC)C=CCN6CC[C@]43[C@@H]65)C2)C1 [Vincristine]	Unpredictable absorption		
O=NN(CCCl)C(=O)NC1CCCCC1 [Lomustine, 1-(2-chloro-ethyl)-3-cyclohexyl-1 nitrosourea]			about half
COc1cccc2c1C(=O)c1c(O)c3c(c(O)c1C2=O)C[C@@](O)(C(C)=O)C[C@@H]3O[C@H]1C[C@H](N)[C@H](O)[C@H](C)O1 [Daunorubicin, 5,12-Naphthacenedione, (8S-cis)-8-acetyl-10-((3-amino-2,3,6-trideoxy-a-L-lyxo-hexanopyranosyl)oxy)-7,8,9,10-tetrahydro-6,8,11-trihydroxy-10-methoxy-, hydrochloride]	poor		
N.N.[Cl][Pt][Cl] [Cisplatin]	not absorbed orally		
COc1cccc2c1C(=O)c1c(O)c3c(c(O)c1C2=O)C[C@@](O)(C(=O)CO)C[C@@H]3O[C@H]1C[C@H](N)[C@H](O)[C@H](C)O1 [Doxorubicin, 5,12-Naphthacenedione, (8s-cis)-10-((3-amino-2,3,6-trideoxy-a-L-lyxo-hexopyranosyl)oxy)-7,8,9,10-tetrahydro-6,8,11-trihydroxy-8-(hydroxyacetyl)-1-methoxy-hydrochloride]	absorbed poorly		
